Columns and labels:
Type in all cases: cell-based
[1] = tested on: senescent human dermal fibroblast (HDF) M11 cells; assay: Mitochondrial reactive oxygen species (MitoSOX Red); conditions: 0.1 μM, about 3 weeks, vs DMSO
Method: (§1) In order to examine whether senescent cells proliferate in response to treatment with BRAF inhibitors, human dermal fibroblast (HDF) M11 cells taken from a child are cultured in Dulbecco's Modified Eagle's Medium (DMEM) containing a high concentration of glucose, glutamine, and pyruvate, and 10% (v/v) fetal bovine serum (FBS), and 1× penicillin/streptomycin at about 37° C. and 5% CO2 atmosphere, thereby obtaining senescent cells. As for the senescent cells, cells that are passaged 35 times and whose doubling time is about 10 days or longer are used.
(§2) As described in 1, 0.1 μM SB590885 is added to the prepared senescent cells, which are cultured in the presence of SB590885 for about 3 weeks. Cells treated with DMSO (Sigma-Adrich) alone are used as a negative control group.
In order to measure mitochondrial function in senescent cells, the amount of reactive oxygen species (ROS) in the prepared senescent cells is measured using a MitoSOX™ Red Mitochondrial Superoxide indicator (Life technologies). A relative ROS amount of the senescent cells cultured in the presence of SB590885 to that of the negative control group is shown in FIG. 4B. […] Accordingly, SB590885 inhibits mitochondrial damage in senescent cells.
As described in 3(2), the amount of ROS in the senescent cells is measured. A relative ROS ratio of the senescent cells cultured in the presence of TAK-632 to the negative control group is calculated.
As described in 3.(2), the amount of ROS in the senescent cells is measured. A relative ROS ratio of the senescent cells cultured in the presence of vemurafenib to the negative control group is calculated.

[2] = tested on: senescent human dermal fibroblast (HDF) M11 cells; assay: Relative proliferation rate of senescent cells (SYBR Green I DNA quantification); conditions: 5 μM, about 3 weeks, vs DMSO negative control
Method: as §1
The prepared senescent cells are inoculated at a density of 1000 cells/well in a 96-well plate. The BRAF inhibitor is added to the inoculated cells at a final concentration of 5 μM. SB590885, vemurafenib (PLX4032, RG7204), TAK-632, CEP-32496, GDC-0879, PLX-4720, ZM 336372, Sorafenib tosylate, Sorafenib, GW5074, Dabrafenib (GSK2118436), AZ 628, RAF265 (CHIR-265), and NVP-BHG712 are used as BRAF inhibiting drugs. Cells treated with dimethyl sulfoxide (DMSO) (Sigma-Aldrich) alone are used as a negative control group. The medium is replaced with a fresh medium containing the drug or DMSO alone once every four days. About 3 weeks after initial addition of the drug, 0.1% (w/v) SYBR Green I (Life Technologies, Cat. No. S-7563) is used to quantify DNA, and the number of cells is calculated from the DNA quantity measured.
The number of the senescent cells in the drug-treated group is compared to the number of the cells in the negative control group so as to calculate a relative proliferation rate. The relative proliferation rates of senescent cells treated with BRAF inhibitors to that of the negative control group are shown in FIG. 1.
The senescent cells prepared as described in 1 are inoculated at a density of 1000 cells/well in a 96-well plate. […]
Then, SYBR Green I (Life Technologies, Cat. No. S-7563) is used to quantify DNA in the senescent cells thus cultured, and the number of cells is calculated from the DNA quantity measured. […]

[3] = tested on: senescent human dermal fibroblast (HDF) M11 cells; assay: Lysosome accumulation (LysoTracker Blue DND-22, FACS); conditions: 0.1 μM, about 3 weeks, vs DMSO
Method: as §1, §2
In order to measure lysosome accumulation in senescent cells, the prepared senescent cells are stained using a LysoTracker®Blue DND-22 (Life Technologies, Cat. No. L-7525). The amount of lysosome is quantified by measuring the fluorescent radiation having a wavelength of 422 nm while irradiating the stained senescent cells with rays having a wavelength at about 373 nm using a FACSCaliber (Beckton Dickson). The amount (%) of lysosome in the cells cultured in the presence of SB590885 relative to that of the negative control group is shown in FIG. 4C.
As described in 3(2), the amount of lysosomes in senescent cells is measured and the amount (%) of lysosome in the cells cultured in the presence of TAK-632 relative to that of the negative control group is shown in FIG. 5C.
As described in 3.(2), the amount of lysosomes in senescent cells is measured and the amount (%) of lysosome in the cells cultured in the presence of vemurafenib relative to that of the negative control group is shown in FIG. 6C.

[4] = tested on: senescent human dermal fibroblast (HDF) M11 cells; assay: Lipofuscin accumulation by autofluorescence (FACS); conditions: 0.1 μM, about 3 weeks, vs DMSO
Method: as §1, §2
As lipofuscin in senescent cells emits autofluorescence, accumulation of lipofuscin is analyzed by measuring the fluorescent radiation having a wavelength of 520 nm while irradiating the senescent cells with rays having a wavelength at about 488 nm using a FACSCaliber (Beckton Dickson). A relative autofluorescence ratio of the senescent cells cultured in the presence of SB590885 to the negative control group is calculated.
As described in 1, 0.1 μM TAK-632 is added to the prepared senescent cells, which are cultured in the presence of TAK-632 for about 3 weeks. Cells treated with DMSO (Sigma-Adrich) alone are used as a negative control group.
As described in 3(2), autofluorescence in the senescent cells is measured and a relative autofluorescence ratio of the senescent cells cultured in the presence of TAK-632 to the negative control group is calculated.
As described in 1, 0.1 μM vemurafenib is added to the prepared senescent cells, which are cultured in the presence of vemurafenib for about 3 weeks. Cells treated with DMSO (Sigma-Adrich) alone are used as a negative control group.
As described in 3.(2), autofluorescence in the senescent cells is measured and a relative autofluorescence ratio of the senescent cells cultured in the presence of vemurafenib to the negative control group is calculated.

Row | SMILES | decrease in the amount of ROS compared to negative control group [1] | proliferation rate higher than the negative control group [2] | decrease in lysosome accumulation compared to negative control group [3] | decrease in lipofuscin compared to negative control group [4] | ROS relative to negative control group [1] | autofluorescence relative to negative control group [4]
1 | N#Cc1c(Oc2ccc(F)c(NC(=O)Cc3cccc(C(F)(F)F)c3)c2)ccc2nc(NC(=O)C3CC3)sc12 [TAK-632] | ~40% | about 30% | ~40% | ~48% |  | 
2 | CCCS(=O)(=O)Nc1ccc(F)c(C(=O)c2c[nH]c3ncc(-c4ccc(Cl)cc4)cc23)c1F [vemurafenib] | about 40% | about 30% | about 40% | about 60% |  | 
3 | CN(C)CCOc1ccc(-c2nc(-c3ccncc3)c(-c3ccc4c(c3)CC/C4=N\O)[nH]2)cc1 [SB590885] | about 60% | about 30% | about 25% | 70% | about 38% | about 28%
